According to ChEMBL document CHEMBL3994635, “Inhibition of LPS-stimulated ROS production by fluorinated and hydroxylated chalcones in RAW 264.7 macrophages with structure-activity relationship study” (Bioorg Med Chem Lett, 2017):

What was measured:
[1] = tested on: RAW264.7; experiment: Inhibition of LPS-stimulated ROS production in mouse RAW264.7 cells preincubated for 1 hr followed by LPS stimulation for 24 hrs measured after 30 mins by CMH2DCFDA probe-based fluorescence assay; type: functional, cell-based
[2] = tested on: RAW264.7; experiment: Cytotoxicity in mouse RAW264.7 cells assessed as cell viability after 24 hrs by MTS assay; type: cell-based; settings: raw264.7, 24 h
[3] = Cytotoxicity in mouse RAW264.7 cells assessed as cell viability at 1 uM after 24 hrs by MTS assay; type: cell-based; settings: read-out: Activity
[4] = tested on: RAW264.7; experiment: Inhibition of LPS-stimulated ROS production in mouse RAW264.7 cells after 22 hrs by C-400 fluorescent dye-based assay; type: functional, cell-based; settings: RAW264.7, 22 h

IC50 [1]	SMILES	Activity [2]	viability at 24 h, 1 µM [3]	IC50 [4]
> 10 µM	O=C(/C=C/c1cccc(F)c1)c1ccccc1O	Non-Toxic	–	–
> 10 µM	O=C(/C=C/c1ccc(C(F)(F)F)cc1)c1ccc(O)cc1	Non-Toxic	–	–
> 10 µM	O=C(/C=C/c1ccc(F)cc1)c1ccccc1O	Non-Toxic	–	–
> 10 µM	O=C(/C=C/c1ccccc1C(F)(F)F)c1ccc(O)cc1	Non-Toxic	–	–
> 10 µM	O=C(/C=C/c1ccc(F)cc1)c1ccc(O)cc1	Non-Toxic	–	–
> 10 µM	O=C(/C=C/c1ccccc1F)c1ccccc1O	Non-Toxic	–	–
> 10 µM	O=C(/C=C/c1ccccc1F)c1cccc(O)c1	Non-Toxic	–	–
> 10 µM	O=C(/C=C/c1cccc(OC(F)(F)F)c1)c1ccc(O)cc1	Non-Toxic	–	–
> 10 µM	O=C(/C=C/c1ccccc1F)c1ccc(O)cc1	Non-Toxic	–	–
> 10 µM	O=C(/C=C/c1ccc(C(F)(F)F)cc1)c1cccc(O)c1	Non-Toxic	–	–
1.44 µM	O=C(/C=C/c1cccc(C(F)(F)F)c1)c1ccc(O)cc1	Non-Toxic	–	–
> 10 µM	O=C(/C=C/c1cccc(OC(F)(F)F)c1)c1cccc(O)c1	Non-Toxic	–	–
> 10 µM	O=C(/C=C/c1ccccc1F)c1ccccc1	Non-Toxic	–	–
> 10 µM	O=C(/C=C/c1ccc(F)cc1)c1cccc(O)c1	Non-Toxic	–	–
> 10 µM	O=C(/C=C/c1ccc(C(F)(F)F)cc1)c1ccccc1	Non-Toxic	–	–
> 10 µM	O=C(/C=C/c1ccc(OC(F)(F)F)cc1)c1cccc(O)c1	Non-Toxic	–	–
> 10 µM	O=C(/C=C/c1ccc(C(F)(F)F)cc1)c1ccccc1O	Non-Toxic	–	–

The next lines start with the compound.

SMILES	IC50 [1]	Activity [2]	viability at 24 h, 1 µM [3]	IC50 [4]
O=C(/C=C/c1ccc(OC(F)(F)F)cc1)c1ccccc1O	> 10 µM	Non-Toxic	–	–
O=C(/C=C/c1ccc(OC(F)(F)F)cc1)c1ccc(O)cc1	> 10 µM	Non-Toxic	–	–
O=C(/C=C/c1ccc(OC(F)(F)F)cc1)c1ccccc1	> 10 µM	Non-Toxic	–	–
O=C(/C=C/c1ccccc1C(F)(F)F)c1ccccc1	> 10 µM	Non-Toxic	–	–
O=C(/C=C/c1cccc(OC(F)(F)F)c1)c1ccccc1O	–	–	< 90%	–
O=C(/C=C/c1cccc(C(F)(F)F)c1)c1ccccc1	> 10 µM	Non-Toxic	–	–
O=C(/C=C/c1cccc(OC(F)(F)F)c1)c1ccccc1	> 10 µM	Non-Toxic	–	–
O=C(/C=C/c1cccc(C(F)(F)F)c1)c1cccc(O)c1	–	–	< 90%	–
O=C(/C=C/c1cccc(F)c1)c1ccc(O)cc1	9.15 µM	Non-Toxic	–	–
O=C(/C=C/c1ccccc1OC(F)(F)F)c1ccc(O)cc1	1.34 µM	Non-Toxic	–	–
O=C(/C=C/c1cccc(F)c1)c1cccc(O)c1	> 10 µM	Non-Toxic	–	–
O=C(/C=C/c1cccc(F)c1)c1ccccc1	> 10 µM	Non-Toxic	–	–
O=C(/C=C/c1ccccc1OC(F)(F)F)c1ccccc1O	–	–	< 90%	–
O=C(/C=C/c1ccccc1C(F)(F)F)c1ccccc1O	–	–	< 90%	–
O=C(/C=C/c1cccc(C(F)(F)F)c1)c1ccccc1O	–	–	< 90%	–
COc1cc(-c2[o+]c3cc(O)cc(O)c3cc2O)cc(OC)c1O [MALVIDIN CHLORIDE]	–	–	–	9 µM
O=C(/C=C/c1ccccc1OC(F)(F)F)c1cccc(O)c1	1.61 µM	Non-Toxic	–	–
O=C(/C=C/c1ccccc1C(F)(F)F)c1cccc(O)c1	> 10 µM	Non-Toxic	–	–
O=C(/C=C/c1ccccc1OC(F)(F)F)c1ccccc1	> 10 µM	Non-Toxic	–	–
